From patent publication US7045600B2, “Modification of collagenous materials and medical treatment, diagnosis and monitoring of fibrotic conditions” (Nederlandse Organisatie voor …, priority 1999, dated 2006)

Columns and labels:
PLOD2B mRNA [1] = experiment: PLOD2B mRNA levels by real-time PCR in minoxidil-treated human skin fibroblasts and myofibroblasts; format: cell-based; conditions: 1 mM minoxidil, 41 hours, versus untreated (FIG. 8)
Procedure: To substantiate that minoxidil suppresses the expression of PLOD2, human skin fibroblasts and myofibroblasts were cultured in 25 cm^2 flasks in DMEM (Gibco) supplemented with 10% FBS in 5% CO2. At near confluency the fibroblasts and myofibroblasts were incubated for 41 hours in medium containing 1 mM minoxidil. Minoxidil was dissolved at room temperature in medium with 10% FBS for 8 hours which was filtered prior to use. As a control both cell types were incubated for 41 hours in medium without minoxidil. At the end of the incubation period, the cells were washed with PBS and lysed with 600 μl RLT-buffer (RNeasy kit, Qiagen). RNA was isolated following the manufacturers protocol and subsequently reverse transcribed into cDNA (first strand cDNA synthesis kit, Roche Molecular Biochemicals). The levels of PLOD2B mRNA in the untreated and minoxidil-treated cells were quantified using real-time PCR as described in example 8. […]
Real time PCR amplification of PLOD2 and β2-microglobulin was performed, using specific primers (PLOD2 forward primer: 5′ […] 3′ (SEQ ID NO:48) PLOD2 reverse primer: 5′ […] 3′ (SEQ ID NO:49)β2-microglobulin forward primer; 5′ […] 3 (SEQ ID NO:50)β32-microglobulin reverse primer 5′ […] 3′) (SEQ ID NO:51) and specific molecular beacons PLOD2: 5′ FAM-cgtgcg[…] […] Data was analysed using sequence detector V1.7 software.

[2] = system: lysyl hydroxylation level of the telopeptides (pyridinoline cross-links) in chondrocytes; experiment: Pyridinoline (HP and LP) cross-links in collagen from calf chondrocytes cultured in alginate beads with minoxidil; format: cell-based, calves; conditions: culture period of 20–50 days
Procedure: Chondrocytes from the metacarpophalangeal joint of calves (12–14 months old, local slaughterhouse) were isolated by collagenase digestion: cartilage slices were minced and digested overnight at 37° C. in 0.14% (w/v) collagenase (Worthington CLS2) in Dulbecco's modified Eagle's medium (DMEM). After filtration of the suspension, cells were washed suspended in 1.2% (w/v) alginate (Keltone LVCR) in 0.9% NaCI at a density of 4×10^6 cells/ml, which was passed dropwise through a 22-gauge needle into 102 mM CaCl2. After 10 min of polymerization, beads were washed in 0.9% (w/v) NaCl (three times) and finally in complete medium: DMEM-Glutamax (Gibco BRL) supplemented with 100 U/ml of penicillin/streptomycin, 10% (v/v) foetal calf serum and 50 μg/ml ascorbic acid. The cells were cultured at 10 beads per 0.5 ml medium in a humid atmosphere of 5% CO2 in air at 37° C.; the medium was refreshed twice weekly. Minoxidil was dissolved in complete medium and added to the culture after 7 days of preculture under control conditions. Harvested beads were washed with 0.9% NaCl containing 10 mM CaCl2 and hydrolyzed in 900 μl 6 M HCl at 108° C. for 20–24 h. […] Based on hydroxyproline levels, amounts of collagen were calculated, assuming 300 hydroxyproline residues/triple helix. […] Crosslinks were expressed as amount of residues per collagen molecule.

PLOD2B mRNA [3] = experiment: PLOD2B mRNA levels by real-time PCR in TGF-β-treated human skin fibroblasts; format: cell-based; conditions: for increase of PLOD2B mRNA levels: human skin fibroblasts, 1, 5 or 10 nM, 50 hours, versus untreated (FIG. 9)
Procedure: Human skin fibroblasts were cultured in 25 cm^2 flasks in DMEM (Gibco) supplemented with 10% FBS in 5% CO2. At near confluency the fibroblasts and myofibroblasts were incubated for 50 hours in medium containing 1, 5 or 10 nM human recombinant TGF-β1, -β2 or -β3. As a control, human skin fibroblasts were incubated for 50 hours in medium without the addition of TGF-β. At the end of the incubation period, the cells were washed with PBS and lysed with 600 μl RLT-buffer (RNeasy kit, Qiagen). RNA was isolated following the manufacturers protocol and subsequently reverse transcribed into cDNA (first strand cDNA synthesis kit, Roche Molecular Biochemicals). The levels of PLOD2B mRNA in the untreated and TGF-β treated cells were quantified using real-time PCR as described in example 8.
RNA, obtained from cultured human skin fibroblasts and cultured human myofibroblast, was isolated using the RNeasy kit (Qiagen). To remove any genomic DNA in the RNA sample, a Dnase treatment was carried out, using RQ1 Rnase-free Dnase (Promega). RNA was then reverse transcripted into cDNA and subjected to real time PCR amplification.
Real time PCR amplification of PLOD2 and β2-microglobulin was performed, using specific primers (PLOD2 forward primer: 5′ […] 3′ (SEQ ID NO:48) PLOD2 reverse primer: 5′ […] 3′ (SEQ ID NO:49)β2-microglobulin forward primer; 5′ […] 3 (SEQ ID NO:50)β32-microglobulin reverse primer 5′ […] 3′) (SEQ ID NO:51) and specific molecular beacons PLOD2: 5′ FAM-cgtgcg[…] (SEQ ID NO:52) cgcacg-DABCYL 3 ′; β2-microglobulin: 5′HEX-cgtgc[…] (SEQ ID NO:53) gcacg-DABCYL 3′). PLOD2 was amplified in a multiplex PCR together with β2-microglobulin in a total reaction volume of 25μl, containing 1×PCR buffer (Applied Biosystems), 0.4 mM of each dNTP, 3.5 mM Mg^2+, 250 nM of each target primer, 100 nM of each primer for μ2microglobulin and 1 unit Amplitaq Gold polymerase (Applied Biosystems). PCR was performed in a ABI PRISM® 7700 Sequence Detection System and consisted of a 5 minute interval at 95° C., followed by 40 cycles of 95° C. for 30 seconds, 56° C. for 40 seconds and 72° C. for 30 seconds. Data was analysed using sequence detector V1.7 software.

[4] = system: helical lysyl hydroxylase; conditions: cited from earlier work

Molecule: Nc1cc(N2CCCCC2)nc(N)[n+]1[O-] [minoxidil]
- reduction of PLOD2B mRNA levels (PLOD2B mRNA [1]; human myofibroblasts): about 15 fold
- reduction of PLOD2B mRNA levels (PLOD2B mRNA [1]; human skin fibroblasts): 4 fold
- amount of pyridinolines (HP and LP), mean ([2]; alginate beads cultured with 0.3 mM minoxidil): 0.38 residues/collagen molecule
- amount of pyridinolines (HP and LP), mean ([2]; alginate beads cultured with 1.0 mM or 2.0 mM minoxidil): around 0.15 residues/collagen molecule

Molecule: TGF-β1: human recombinant TGF-β1
- increase of PLOD2B mRNA levels (PLOD2B mRNA [3]): about 20 fold

Molecule: CCOC(=O)CC(SP(=O)(OC)OC)C(=O)OCC (stereo not shown) [malaoxon]
- helical lysyl hydroxylase inhibition [4]: inhibit

Molecule: TGF-β
- expression of PLOD2B (FIG. 9 legend, in words) (PLOD2B mRNA [3]; fibroblasts, TGF-β added to the culture medium): increased

Molecule: CCOC(=O)CC(SP(=S)(OC)OC)C(=O)OCC (stereo not shown) [malathion]
- helical lysyl hydroxylase inhibition [4]: inhibit

B1: TGF-β2: human recombinant TGF-β2 (protein, UniProt P61812 303-414, looked up)
Transforming growth factor …: ALDAAYCFRNVQDNCCLRPLYIDFKRDLGWKWIHEPKGYNANFCAGACPYLWSSDTQHSRVLSLYNTINPEASASPCCVSQDLEPLTILYYIGKTPKIEQLSNMIVKSCKCS
- increase of PLOD2B mRNA levels (PLOD2B mRNA [3]): about 20 fold

B2: TGF-β3: human recombinant TGF-β3 (protein, UniProt P10600 301-412, looked up)
Transforming growth factor …: ALDTNYCFRNLEENCCVRPLYIDFRQDLGWKWVHEPKGYYANFCSGPCPYLRSADTTHSTVLGLYNTLNPEASASPCCVPQDLEPLTILYYVGRTPKVEQLSNMVVKSCKCS
- increase of PLOD2B mRNA levels (PLOD2B mRNA [3]): about 20 fold
